Measured values as given in article PMC12165799, “Antimicrobial peptide developed with machine learning sequence optimization targets drug resistant Staphylococcus aureus in mice” (The Journal of Clinical Investigation, 2025).
Where two headings read alike, the source gives them in different places.

Tests used:
[1] = system: S. aureus JE2 and transposon mutants; type: cell-based, Staphylococcus aureus
Description: (§1) 305 Minimal inhibitory concentration (MIC) assay
(§2) We made serial dilutions of 10×
(§3) We determined the MIC using OD600
(§4) Accordingly, we added 150 mM NaCl,
(§5) 319 established protocol (5).
542 Use of S. aureus transposon mutants
543 We used S. aureus transposon mutants from the Nebraska Transposon Mutant Library
544 (NTML)(21). The library has a collection of 1,952 strains, each containing a single mutation within
545 a nonessential gene of USA300, an epidemic community-associated MRSA (CA-MRSA) isolate
546 (21). We selected a transposon insertion mutant from the NTML library in the fmtc gene, which
547 catalyzes the transfer of a lysyl group from L-lysyl-tRNA to membrane-bound
548 phosphatidylglycerol (PG) to produce lysylphosphatidylglycerol (LPG) (11). LPG imparts a less-
549 negative charge to the overall membrane potential and thus contributes to bacterial virulence by
550 contributing a resistance mechanism against cationic AMPs (11).

TNFA, IL6, MCP1 = test: Cytokine estimation in infected murine skin (prophylactic model); type: in vivo, mice; set-up: TNFA in murine skin / IL6 in murine skin / MCP1 in murine skin: unit not given here; details: 2% w/w
Description: (§6) 599 In vivo murine skin infection and treatment
(§7) 600 We used a topical skin-abraded murine infection model with minor modifications to test
(§8) 601 the in vivo efficacy of the CIT-8 peptide (25). We performed all mouse studies following the
(§9) 602 protocol approved by the Institutional Animal Care and Use Committee. In brief, we anesthetized
(§10) 603 female C57BL/6 mice (6 weeks) (Jackson Laboratory, Bar Harbor, ME, USA) with ketamine-
(§11) 604 xylazine (90 mg/kg ketamine and 10 mg/kg xylazine) via intraperitoneal injection. We shaved the
(§12) 605 dorsal side of the mice in the middle of the back (area=2 cm2). To disrupt skin integrity, we tape-
(§13) 606 stripped with Tensoplast® seven times in succession, replacing the tape each time, resulting in
(§14) 607 visibly damaged skin. We infected the damaged skin area with 1 × 10^7 CFU of S. aureus MW2
(§15) 608 (exponential phase bacteria in PBS) with an inoculum of 50 µl using a pipette tip. Ten minutes
(§16) 609 (prophylactic model) and 24 h (established model) after bacterial inoculation, we applied 30 mg
(§17) 610 of 1 and 2% (w/w) CIT-8 ointment in a white petroleum jelly base (Cat no. 19-090-843, Fisher
(§18) 611 Scientific, MA, USA) to the skin. We also included animal groups treated with only petroleum
(§19) 612 jelly or with 2% commercial mupirocin ointment as negative and positive controls, respectively.
(§20) 613 For pain management, we used the analgesic buprenorphine SR (0.05 mg/kg).
(§21) 614 After 24 h of treatment, we euthanized the animals, separated the skin from the underlying
(§22) 615 fascia and muscle tissue, and excised about 2 cm2 of skin from the infected area. We ground the
(§23) 616 skin in 1ml of PBS buffer (Gibco, MD, USA). We serially diluted 100 µl of the solution in PBS
(§24) 617 and plated it on Remel™ TSA plates (Fisher, MA, USA) to estimate viable colony counts after 18
(§25) 618 h of incubation at 37 °C. Further, we added 10 µl of EDTA-Free, protease inhibitor cocktail Set III
(§26) 619 (Millipore Sigma, MA, USA) to 500 µl of the ground skin PBS solution for cytokine estimation.
(§27) 620 The Cytokine Core, LLC (Indianapolis, IN, USA) performed the cytokine concentration analysis

[2] = system: S. aureus MW2 skin infection; test: Skin-abraded murine infection, established infection model, bacterial load; type: in vivo, mice; set-up: Bacterial load from skin specimens, established infection model / bacterial load in skin, Sup. Fig. 12: unit not given here; details: for Reduction of S. aureus MW2 vs vehicle, established infection model: single dose 24 hours after inoculation, n = 8; for bacterial load in skin, Sup. Fig. 12: mice
Description: as §6, §7, §8, §9, §10, §11, §12, §13, §14, §15, §16, §17, §18, §19, §20, §21, §22, §23, §24, §25, §26, §27

[3] = system: S. aureus MW2 (MRSA) exponential and persister cells; test: S. aureus persister cell and time-kill assays (MW2); type: cell-based, Staphylococcus aureus; details: approximately 1 × 10^8 CFU, 10 × MIC
Description: as §1, §2, §3, §4, §5
323 aureus VRS1) in PBS. To assess the killing kinetics of CIT-8 in persister cells, we added 1 ml of
324 cell suspension to the wells of a 2-ml deep-well assay block (Cat no. 3960, Corning, NY, USA)
We also included ciprofloxacin (at 10 μg/ml) for S.
326 aureus MW2 and linezolid (100 μg/ml) for S. aureus VRS1 as antibiotic controls. Additionally,
327 we included bithionol (at 10 μg/ml) as a positive control, known for its ability to kill stationary
328 phase persister cells (6). We incubated the plates at 37°C, with shaking at 225 rpm. At specific
329 times (0, 15, 30, 60, and 120 min), we collected 10 μl samples, diluted them serially, and then
330 plated them on tryptic soy agar (TSA) (BD Difco, NJ, USA) plates. We incubated the TSA plates
331 for 18 hours at 37°C for colony counting. We performed these experiments in duplicate. As a
332 comparison, we prepared the exponential cells of S. aureus MW2 and VRS1 in PBS and analyzed
333 their killing kinetics in the same manner as described for persister cells.

## H-GLFKVIKKLLKVI-NH2 [CIT-8]
[1]
  Reduction in MIC against mprF transposon mutant compared with JE2: 2 fold
[1]; JE2, Supplemental Table 6
  MIC: 4 mg/L
[1]; also with 100 μM supplemental external vitamin B6
  MIC for pdx-transposon mutant versus parent strain JE2: same MIC
[1]; mprF transposon mutant (NTML)
  MIC: 2 mg/L
TNFA, IL6, MCP1; animal 1
  IL6 in murine skin: 3.152
  MCP1 in murine skin: 6.488
  TNFA in murine skin: 126
TNFA, IL6, MCP1; animal 2
  IL6 in murine skin: 2.798
  MCP1 in murine skin: 3.271
  TNFA in murine skin: 153.385
TNFA, IL6, MCP1; animal 3
  IL6 in murine skin: 1.183
  MCP1 in murine skin: 2.973
  TNFA in murine skin: 114.591
TNFA, IL6, MCP1; animal 4
  IL6 in murine skin: 2.409
  MCP1 in murine skin: 4.047
  TNFA in murine skin: 182.154
TNFA, IL6, MCP1; animal 5
  IL6 in murine skin: 1.071
  MCP1 in murine skin: 1.51
  TNFA in murine skin: 103
TNFA, IL6, MCP1; animal 6
  IL6 in murine skin: 5.43
  MCP1 in murine skin: 10.445
  TNFA in murine skin: 372.2
TNFA, IL6, MCP1; n = 6
  Reduction of IL6 level in skin: 5 fold
  Reduction of MCP1 level in skin: 5 fold
  Reduction of TNFA level in skin: 2.5 fold
[2]; 1% ointment 24 hours after infection, animal 1
  Bacterial load from skin specimens, established infection model: 573476702
[2]; 1% ointment 24 hours after infection, animal 2
  Bacterial load from skin specimens, established infection model: 722891566
[2]; 1% ointment 24 hours after infection, animal 3
  Bacterial load from skin specimens, established infection model: 990099010
[2]; 1% ointment 24 hours after infection, animal 4
  Bacterial load from skin specimens, established infection model: 73752712
[2]; 1% ointment 24 hours after infection, animal 5
  Bacterial load from skin specimens, established infection model: 440528634
[2]; 1% ointment 24 hours after infection, animal 6
  Bacterial load from skin specimens, established infection model: 407784986
[2]; 1% ointment 24 hours after infection, animal 7
  Bacterial load from skin specimens, established infection model: 586080586
[2]; 1% ointment 24 hours after infection, animal 8
  Bacterial load from skin specimens, established infection model: 58441558
[2]; 1% w/w ointment
  Reduction of S. aureus MW2 vs vehicle, established infection model: 0.85 log
[2]; 1%, animal 1
  bacterial load in skin, Sup. Fig. 12: 3454231
[2]; 1%, animal 2
  bacterial load in skin, Sup. Fig. 12: 9594096
[2]; 1%, animal 3
  bacterial load in skin, Sup. Fig. 12: 4268293
[2]; 1%, animal 4
  bacterial load in skin, Sup. Fig. 12: 37383178
[2]; 1%, animal 5
  bacterial load in skin, Sup. Fig. 12: 4592423
[2]; 1%, animal 6
  bacterial load in skin, Sup. Fig. 12: 4992200
[2]; 1%, animal 7
  bacterial load in skin, Sup. Fig. 12: 5211726
[2]; 1%, animal 8
  bacterial load in skin, Sup. Fig. 12: 8092486
[2]; 2% ointment 24 hours after infection, animal 1
  Bacterial load from skin specimens, established infection model: 198248802
[2]; 2% ointment 24 hours after infection, animal 2
  Bacterial load from skin specimens, established infection model: 54495913
[2]; 2% ointment 24 hours after infection, animal 3
  Bacterial load from skin specimens, established infection model: 66006601
[2]; 2% ointment 24 hours after infection, animal 4
  Bacterial load from skin specimens, established infection model: 87431694
[2]; 2% ointment 24 hours after infection, animal 5
  Bacterial load from skin specimens, established infection model: 13757524
[2]; 2% ointment 24 hours after infection, animal 6
  Bacterial load from skin specimens, established infection model: 41237113
[2]; 2% ointment 24 hours after infection, animal 7
  Bacterial load from skin specimens, established infection model: 64923354
[2]; 2% ointment 24 hours after infection, animal 8
  Bacterial load from skin specimens, established infection model: 70546737
[2]; 2% w/w ointment
  Reduction of S. aureus MW2 vs vehicle, established infection model: 1.8 log
[2]; 2%, animal 1
  bacterial load in skin, Sup. Fig. 12: 3143418
[2]; 2%, animal 2
  bacterial load in skin, Sup. Fig. 12: 1148325
[2]; 2%, animal 3
  bacterial load in skin, Sup. Fig. 12: 935065
[2]; 2%, animal 4
  bacterial load in skin, Sup. Fig. 12: 898204
[2]; 2%, animal 5
  bacterial load in skin, Sup. Fig. 12: 917874
[2]; 2%, animal 6
  bacterial load in skin, Sup. Fig. 12: 1020408
[2]; 2%, animal 7
  bacterial load in skin, Sup. Fig. 12: 1787044
[2]; 2%, animal 8
  bacterial load in skin, Sup. Fig. 12: 4694836
[3]
  Time to complete eradication of MRSA persister cells: ≤ 30 min
